According to patent publication US7834011B2, “Heterocyclylalkyl derivatives as novel inhibitors of histone deacetylase” (Janssen Pharmaceutica N.V., priority 2006, dated 2010):
≈ marks a conversion by molar mass, not a printed value.

Assays:
[1] = target: histone deacetylase (HeLa nuclear extracts); assay: In vitro assay for inhibition of histone deacetylase with fluorescent-labelled substrate (Fluor de Lys); assay type: biochemical
Source text: The in vitro assay for inhibition of histone deacetylase (see example C.1) measures the inhibition of HDAC enzymatic activity obtained with the compounds of formula (I).
The HDAC Fluorescent Activity Assay/Drug Discovery Kit of Biomol (cat. No: AK-500-0001) was used. The HDAC Fluorescent Activity Assay is based on the Fluor de Lys (Fluorogenic Histone deAcetylase Lysyl) substrate and developer combination. The Fluor de Lys substrate, comprises an acetylated lysine side chain. Deacetylation of the substrate sensitizes the substrate so that, in the second step, treatment with the Fluor de Lys developer produces a fluorophore.
HeLa nuclear extracts (supplier: Biomol) were incubated at 60 μg/ml with 75 μM of substrate. The Fluor de Lys substrate was added in a buffer containing 25 mM Tris, 137 mM NaCl, 2.7 mM KCl and 1 mM MgCl2.6H2O at pH 7.4. After 30 min, 1 volume of the developer was added. The fluorophore was excited with 355 nm light and the emitted light (450 nm) was be detected on a fluorometric plate reader.
For each experiment, controls (containing HeLa nuclear extract and buffer), a blank incubation (containing buffer but no HeLa nuclear extract) and samples (containing compound dissolved in DMSO and further diluted in buffer and HeLa nuclear extract) were run in parallel. In first instance, compounds were tested at a concentration of 10^−5M. […] All sample were tested 4 times. In each test the blank value was subtracted from both the control and the sample values. The control sample represented 100% of substrate deactylation. For each sample the fluorescence was expressed as a percentage of the mean value of the controls. […] Herein the effects of test compounds are expressed as pIC50 (the negative log value of the IC50-value) (see Table F-2).

[2] = system: A2780 ovarian carcinoma cells; assay: Antiproliferative activity on A2780 cells (MTT); assay type: cell-based; conditions: Homo sapiens, 96 h, four days of incubation, read-out: Cellular activity pIC50 C.2 (converted)
Protocol: Cellular activity of the compounds of formula (I) was determined on A2780 tumour cells using a colorimetric assay for cell toxicity or survival (Mosmann Tim, Journal of Immunological Methods 65: 55-63, 1983)(see example C.2).
All compounds tested were dissolved in DMSO and further dilutions were made in culture medium. Final DMSO concentrations never exceeded 0.1% (v/v) in cell proliferation assays. Controls contained A2780 cells and DMSO without compound and blanks contained DMSO but no cells. MTT was dissolved at 5 mg/ml in PBS. A glycine buffer comprised of 0.1 M glycine and 0.1 M NaCl buffered to pH 10.5 with NaOH (1 N) was prepared (all reagents were from Merck).
The human A2780 ovarian carcinoma cells (a kind gift from Dr. T. C. Hamilton [Fox Chase Cancer Centre, Pennsylvania, USA]) were cultured in RPMI 1640 medium supplemented with 2 mM L-glutamine, 50 μg/ml gentamicin and 10% fetal calf serum. Cells were routinely kept as monolayer cultures at 37° C. in a humidified 5% CO2 atmosphere. Cells were passaged once a week using a trypsin/EDTA solution at a split ratio of 1:40. All media and supplements were obtained from Life Technologies. Cells were free of mycoplasma contamination as determined using the Gen-Probe Mycoplasma Tissue Culture kit (supplier: BioMérieux).
Cells were seeded in NUNC™ 96-well culture plates (Supplier: Life Technologies) and allowed to adhere to the plastic overnight. Densities used for plating were 1500 cells per well in a total volume of 200 μl medium. After cell adhesion to the plates, medium was changed and drugs and/or solvents were added to a final volume of 200 μl. Following four days of incubation, medium was replaced by 200 μl fresh medium and cell density and viability was assessed using an MTT-based assay. To each well, 25 μl MTT solution was added and the cells were further incubated for 2 hours at 37° C. The medium was then carefully aspirated and the blue MTT-formazan product was solubilized by addition of 25 μl glycine buffer followed by 100 μl of DMSO. […] Within an experiment, the results for each experimental condition are the mean of 3 replicate wells. For initial screening purposes, compounds were tested at a single fixed concentration of 10^−6 M. For active compounds, the experiments were repeated to establish full concentration-response curves. For each experiment, controls (containing no drug) and a blank incubation (containing no cells or drugs) were run in parallel. The blank value was subtracted from all control and sample values. For each sample, the mean value for cell growth (in absorbance units) was expressed as a percentage of the mean value for cell growth of the control. […] Herein the effects of test compounds are expressed as pIC50 (the negative log value of the IC50-value)(see Table F-2).

[3] = Solubility at pH 2.3 (chemiluminescent nitrogen detector); assay type: physicochemical; conditions: pH 2.3, aqueous buffer; read-out: Solubility C.3.c. pH = 2.3
Source text: In a third method the solubility of a compound at different pH's can be measured with the use of a Chemiluminescent Nitrogen Detector (see example C.3.c).
The solubility of a compound, at pH 2.3, can also be measured with the use of a chemiluminescent nitrogen detector (see Table F-2).

Row | Enzymatic activity pIC50 C.1 [1] | IC50 [2] | melting point | solubility [3] | SMILES
1 | 7.8 | 200 nM | 193 °C | – | Cn1nc(CNCC2CN(c3ncc(C(=O)NO)cn3)CCO2)c2ccccc21 (stereo not shown) [Compound 4]
2 | – | – | 152 °C | – | Cn1nc(CNCC2CN(c3ncc(C(=O)Nc4ccccc4N)cn3)CCO2)c2ccccc21 (stereo not shown) [Compound 5]
3 | – | – | 219 °C | – | Cn1nc(CN2CCN(c3ccc(C(=O)Nc4ccccc4N)cn3)CC2)c2ccccc21 [Compound 6]
4 | 7.8 | 200 nM | 197 °C | – | Cn1nnc2cc(COCC3CCN(c4ncc(C(=O)NO)cn4)CC3)ccc21 [Compound 7]
5 | 8.2 | 100 nM | 208 °C | 2500 µg/mL (≈ 6.27 mM) | O=C(NO)c1cnc(N2CCC(CNCc3nc4ccccc4s3)CC2)nc1 [Compound 8]
6 | 8.3 | 200 nM | 168 °C | 2400 µg/mL (≈ 5.65 mM) | CCN(Cc1ccc2c(c1)nnn2C)CC1CCN(c2ncc(C(=O)NO)cn2)CC1 [Compound 9]
7 | 8.7 | 50.1 nM | 110 °C | 2700 µg/mL (≈ 6.36 mM) | CCN(Cc1ccc2nnn(C)c2c1)CC1CCN(c2ncc(C(=O)NO)cn2)CC1 [Compound 10]
8 | 8.5 | 794 nM | 130 °C | – | Cn1nnc2cc(CN(CC3CCN(c4ncc(C(=O)NO)cn4)CC3)C(=O)NO)ccc21 [Compound 11]
9 | 7.8 | 1260 nM | 260 °C | < 10 µg/mL | Cn1nnc2ccc(CN(CC3CCN(c4ncc(C(=O)NO)cn4)CC3)S(C)(=O)=O)cc21 [Compound 12]
10 | 7.6 | 251 nM | 199 °C | < 10 µg/mL | CCC(=O)N(Cc1nn(C)c2ccccc12)CC1CCN(c2ncc(C(=O)NO)cn2)CC1 [Compound 13]
11 | 7.5 | 158 nM | – | – | Cn1nc(CN2CCN(c3ccc(C(=O)NO)cn3)CC2)c2ccccc21 [Compound 14]
12 | 8.2 | 39.8 nM | – | – | Cn1cc(CNCC2CCN(c3ncc(C(=O)NO)cn3)CC2)c2cccnc21 [Compound 15]
13 | 7.5 | 100 nM | – | – | Cn1nc(CNCC2CCN(c3ccc(C(=O)NO)cn3)CC2)c2ccccc21 [Compound 16]
14 | 9.0 | 31.6 nM | – | 3800 µg/mL (≈ 8.97 mM) | CCCn1nc(CNCC2CCN(c3ncc(C(=O)NO)cn3)CC2)c2ccccc21 [Compound 17]
15 | 7.6 | 158 nM | – | – | CC(C)n1nnc2cc(CNCC3CCN(c4ncc(C(=O)NO)cn4)CC3)ccc21 [Compound 18]
16 | 8.1 | 1580 nM | – | 2500 µg/mL (≈ 6.32 mM) | Cn1nc2ccccc2c1CNCC1CCN(c2ncc(C(=O)NO)cn2)CC1 [Compound 19]
17 | 7.8 | 158 nM | – | 2500 µg/mL (≈ 6.31 mM) | Cn1nnc2cc(CNCC3CCN(c4ncc(C(=O)NO)cn4)CC3)ccc21 [Compound 20]
18 | 7.5 | 794 nM | – | 1900 µg/mL (≈ 4.34 mM) | CC(=O)N(Cc1nc2ccccc2n1C)CC1CCN(c2ncc(C(=O)NO)cn2)CC1 [Compound 21]
19 | 8.0 | 1000 nM | – | – | Cc1nc2ccc(CNCC3CCN(c4ncc(C(=O)NO)cn4)CC3)cc2[nH]1 [Compound 23]
20 | 8.4 | 50.1 nM | – | 4600 µg/mL (≈ 10.2 mM) | CCN(Cc1ccc2c(c1)nnn2C(C)C)CC1CCN(c2ncc(C(=O)NO)cn2)CC1 [Compound 24]
21 | 7.7 | 126 nM | – | – | Cn1nnc2cc(CN(CC#N)CC3CCN(c4ncc(C(=O)NO)cn4)CC3)ccc21 [Compound 25]
22 | 7.4 | 1580 nM | – | – | CC(=O)N(Cc1ccc2c(c1)nnn2C)CC1CCN(c2ncc(C(=O)NO)cn2)CC1 [Compound 26]
23 | 6.9 | 2000 nM | – | < 10 µg/mL | CCC(=O)N(Cc1ccc2nnn(C)c2c1)CC1CCN(c2ncc(C(=O)NO)cn2)CC1 [Compound 27]
24 | 7.4 | 251 nM | – | 10 µg/mL (≈ 0.0209 mM) | CCCn1nc(CN(CC2CCN(c3ncc(C(=O)NO)cn3)CC2)C(=O)CC)c2ccccc21 [Compound 28]
25 | 7.2 | 794 nM | – | 400 µg/mL (≈ 0.857 mM) | CC(=O)N(Cc1ccc2c(c1)nnn2C(C)C)CC1CCN(c2ncc(C(=O)NO)cn2)CC1 [Compound 29]
26 | – | – | 138 °C | – | CCCn1nc(CN2CCN(c3ccc(C(=O)Nc4cc(-c5cccs5)ccc4N)cn3)CC2)c2ccccc21 [Compound 31]
